Values of other authors in US20070292407A1, “Methods of treatment for meconium aspiration syndrome” (The Board of Trustees Operating Michigan State University, priority 2005, published 2007).

Conditions: in vitro; Burke et al., J Pediatr Surg 2002

CC(=O)N[C@@H](CS)C(=O)O [N-Acetylcysteine, N-acetyl-L-cysteine]
reduction of meconium viscosity: significant reduction of meconium viscosity
